Measurements reported in PubChem BioAssay AID1963826 (Molecular Pharmacology Branch, DTP, NCI, 2024).

Tested on: 926638-142-R-J1-PDC complex spheroid viability
Assay: Anticancer human tumor 926638-142-R-J1-PDC patient-derived endometrial carcinoma cell line growth inhibition [POLQ]
Conditions: for IC50: curve of first compound; for viability, T/C: stronger effect = lower value; active means viability on the fitted dose curve at most 10% of control; inactive means the rest
Procedure, shortened: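 Growth inhibition in 3D: complex spheroids (tumor PDC, HUVEC, MSC) treated with POLQ inhibitor combinations; where Cmax unknown, highest tested concentration 10 microM, except SN-38 at 1 microM.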

[1] = second compound 0.0316 µM, first compound 0.0316 µM
[2] = second compound 0.0316 µM, first compound 0.1 µM
[3] = second compound 0.0316 µM, first compound 0.316 µM
[4] = second compound 0.0316 µM, first compound 1 µM
[5] = second compound 0.0316 µM, first compound 3.16 µM
[6] = second compound 0.0316 µM, first compound 10 µM
[7] = second compound 0.1 µM, first compound 0.0316 µM
[8] = second compound 0.1 µM, first compound 0.1 µM
[9] = second compound 0.1 µM, first compound 0.316 µM
[10] = second compound 0.1 µM, first compound 1 µM
[11] = second compound 0.1 µM, first compound 3.16 µM
[12] = second compound 0.1 µM, first compound 10 µM
[13] = second compound 0.316 µM, first compound 0.0316 µM
[14] = second compound 0.316 µM, first compound 0.1 µM
[15] = second compound 0.316 µM, first compound 0.316 µM
[16] = second compound 0.316 µM, first compound 1 µM
[17] = second compound 0.316 µM, first compound 3.16 µM
[18] = second compound 0.316 µM, first compound 10 µM
[19] = second compound 1 µM, first compound 0.0316 µM
[20] = second compound 1 µM, first compound 0.1 µM
[21] = second compound 1 µM, first compound 0.316 µM
[22] = second compound 1 µM, first compound 1 µM
[23] = second compound 1 µM, first compound 3.16 µM
[24] = second compound 1 µM, first compound 10 µM
[25] = second compound 3.16 µM, first compound 0.0316 µM
[26] = second compound 3.16 µM, first compound 0.1 µM
[27] = second compound 3.16 µM, first compound 0.316 µM
[28] = second compound 3.16 µM, first compound 1 µM
[29] = second compound 3.16 µM, first compound 3.16 µM
[30] = second compound 3.16 µM, first compound 10 µM
[31] = second compound 10 µM, first compound 0.0316 µM
[32] = second compound 10 µM, first compound 0.1 µM
[33] = second compound 10 µM, first compound 0.316 µM
[34] = second compound 10 µM, first compound 1 µM
[35] = second compound 10 µM, first compound 3.16 µM
[36] = second compound 10 µM, first compound 10 µM
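Further: spheroids exposed to drugs for one week before readout.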
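Wherever viability, T/C is given: percent viability relative to DMSO vehicle control wells set as 100%.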

COc1cc2cc(C(=O)CCC(=O)O)sc2cc1OC + Cc1cccc(N(C)C(=O)C2C(O)CCN2c2nc(C)cc(C(F)(F)F)c2C#N)c1
inactive: viability, T/C [1] 101% | viability, T/C [2] 92.9% | viability, T/C [3] 110% | viability, T/C [4] 96.2% | viability, T/C [5] 98.3% | viability, T/C [6] 77.4% | viability, T/C [7] 104% | viability, T/C [8] 98.4% | viability, T/C [9] 99.7% | viability, T/C [10] 87.1% | viability, T/C [11] 83.2% | viability, T/C [12] 80.3% | viability, T/C [13] 119% | viability, T/C [14] 115% | viability, T/C [15] 109% | viability, T/C [16] 84.4% | viability, T/C [17] 98.2% | viability, T/C [18] 88.7% | viability, T/C [19] 99.8% | viability, T/C [20] 111% | viability, T/C [21] 76.9% | viability, T/C [22] 85.8% | viability, T/C [23] 94% | viability, T/C [24] 90.1% | viability, T/C [25] 79.5% | viability, T/C [26] 95.5% | viability, T/C [27] 99.5% | viability, T/C [28] 76.5% | viability, T/C [29] 110% | viability, T/C [30] 94.6% | viability, T/C [31] 79.5% | viability, T/C [32] 95.7% | viability, T/C [33] 94.5% | viability, T/C [34] 87.2% | viability, T/C [35] 104% | viability, T/C [36] 79.9%
> 10000 nM: IC50 (second compound 0.0316 µM) | IC50 (second compound 0.1 µM) | IC50 (second compound 0.316 µM) | IC50 (second compound 1 µM) | IC50 (second compound 3.16 µM) | IC50 (second compound 10 µM)

COc1ccc([C@@H](O)c2cc(-c3ncnc4cc(N5CCOCC5)ccc34)c(F)cc2Cl)nn1 + Nc1ccc(C#CCN(C(=O)Cc2ncc(C(F)(F)F)cc2C(F)(F)F)c2ccc(F)cc2)nn1
628 nM: IC50 (second compound 3.16 µM)
631 nM: IC50 (second compound 0.0316 µM)
537 nM: IC50 (second compound 10 µM)
708 nM: IC50 (second compound 1 µM)
450 nM: IC50 (second compound 0.1 µM)
572 nM: IC50 (second compound 0.316 µM)
inactive: viability, T/C [1] 90.7% | viability, T/C [2] 82% | viability, T/C [3] 58.1% | viability, T/C [4] 47.2% | viability, T/C [5] 20.1% | viability, T/C [6] 14.7% | viability, T/C [7] 101% | viability, T/C [8] 83.3% | viability, T/C [9] 56.6% | viability, T/C [10] 34% | viability, T/C [11] 19.4% | viability, T/C [12] 12.7% | viability, T/C [13] 119% | viability, T/C [14] 101% | viability, T/C [15] 67.1% | viability, T/C [16] 33.9% | viability, T/C [17] 19.8% | viability, T/C [18] 15% | viability, T/C [19] 103% | viability, T/C [20] 88.9% | viability, T/C [21] 71.9% | viability, T/C [22] 41.2% | viability, T/C [23] 20% | viability, T/C [24] 13.2% | viability, T/C [25] 91.6% | viability, T/C [26] 75.8% | viability, T/C [27] 67% | viability, T/C [28] 39.3% | viability, T/C [29] 22.9% | viability, T/C [30] 12.7% | viability, T/C [31] 81.4% | viability, T/C [32] 76.2% | viability, T/C [33] 65.6% | viability, T/C [34] 32% | viability, T/C [35] 15% | viability, T/C [36] 10.2%

CC1COCCN1c1cc(-c2ccnn2C)c2ccnc(-c3ccn[nH]3)c2n1 (stereo not given) + Nc1ccc(C#CCN(C(=O)Cc2ncc(C(F)(F)F)cc2C(F)(F)F)c2ccc(F)cc2)nn1
503 nM: IC50 (second compound 0.0316 µM)
active: viability, T/C [6] 9.34% | viability, T/C [12] 9.21% | viability, T/C [24] 9.7% | viability, T/C [30] 8.56%
357 nM: IC50 (second compound 3.16 µM)
inactive: viability, T/C [1] 101% | viability, T/C [2] 83.7% | viability, T/C [3] 60.3% | viability, T/C [4] 36.7% | viability, T/C [5] 14% | viability, T/C [7] 108% | viability, T/C [8] 85.9% | viability, T/C [9] 50.5% | viability, T/C [10] 33.7% | viability, T/C [11] 14.1% | viability, T/C [13] 104% | viability, T/C [14] 84.7% | viability, T/C [15] 54.5% | viability, T/C [16] 26.7% | viability, T/C [17] 16.8% | viability, T/C [18] 10.1% | viability, T/C [19] 99.7% | viability, T/C [20] 69.6% | viability, T/C [21] 51.7% | viability, T/C [22] 27.5% | viability, T/C [23] 14.3% | viability, T/C [25] 89.8% | viability, T/C [26] 73.6% | viability, T/C [27] 53.9% | viability, T/C [28] 28.6% | viability, T/C [29] 16.7% | viability, T/C [31] 73.3% | viability, T/C [32] 74.5% | viability, T/C [33] 52.5% | viability, T/C [34] 25.7% | viability, T/C [35] 15.1% | viability, T/C [36] 9.63%
377 nM: IC50 (second compound 0.316 µM)
386 nM: IC50 (second compound 0.1 µM)
285 nM: IC50 (second compound 1 µM)
369 nM: IC50 (second compound 10 µM)

CCc1cc2c(N3CCc4c(cc(Cn5ccnc5)cc4-c4cn(C)nc4C(F)(F)F)C3=O)cc(C)nc2c(OC)n1 + Cc1cccc(N(C)C(=O)C2C(O)CCN2c2nc(C)cc(C(F)(F)F)c2C#N)c1
700 nM: IC50 (second compound 0.316 µM)
397 nM: IC50 (second compound 0.0316 µM)
257 nM: IC50 (second compound 10 µM)
554 nM: IC50 (second compound 1 µM)
inactive: viability, T/C [1] 77.9% | viability, T/C [2] 72% | viability, T/C [3] 45.9% | viability, T/C [4] 44.4% | viability, T/C [5] 31.8% | viability, T/C [6] 26.9% | viability, T/C [7] 90.2% | viability, T/C [8] 71% | viability, T/C [9] 59.3% | viability, T/C [10] 44% | viability, T/C [11] 38.1% | viability, T/C [12] 31.4% | viability, T/C [13] 94.8% | viability, T/C [14] 65.3% | viability, T/C [15] 56.3% | viability, T/C [16] 48.4% | viability, T/C [17] 43.2% | viability, T/C [18] 22.5% | viability, T/C [19] 69% | viability, T/C [20] 80.6% | viability, T/C [21] 58.1% | viability, T/C [22] 39.8% | viability, T/C [23] 34.2% | viability, T/C [24] 26.6% | viability, T/C [25] 91.9% | viability, T/C [26] 66.2% | viability, T/C [27] 56.4% | viability, T/C [28] 38% | viability, T/C [29] 44% | viability, T/C [30] 27.1% | viability, T/C [31] 66.5% | viability, T/C [32] 64.7% | viability, T/C [33] 45.1% | viability, T/C [34] 37.1% | viability, T/C [35] 36% | viability, T/C [36] 26.8%
658 nM: IC50 (second compound 0.1 µM)
467 nM: IC50 (second compound 3.16 µM)

COc1cccc2c1C(=O)c1c(O)c3c(c(O)c1C2=O)CC(O)(C(=O)CO)CC3OC1CC(N)C(O)C(C)O1 (stereo not given) + Nc1ccc(C#CCN(C(=O)Cc2ncc(C(F)(F)F)cc2C(F)(F)F)c2ccc(F)cc2)nn1
137 nM: IC50 (second compound 0.316 µM)
150 nM: IC50 (second compound 1 µM)
118 nM: IC50 (second compound 3.16 µM)
167 nM: IC50 (second compound 0.0316 µM)
127 nM: IC50 (second compound 10 µM)
140 nM: IC50 (second compound 0.1 µM)
active: viability, T/C [4] 8.06% | viability, T/C [5] 0.22% | viability, T/C [6] 0.4% | viability, T/C [10] 6.81% | viability, T/C [11] 0.22% | viability, T/C [12] 0.36% | viability, T/C [16] 7.2% | viability, T/C [17] 0.19% | viability, T/C [18] 0.51% | viability, T/C [22] 7.01% | viability, T/C [23] 0.23% | viability, T/C [24] 0.29% | viability, T/C [28] 7.1% | viability, T/C [29] 0.27% | viability, T/C [30] 0.31% | viability, T/C [34] 3.99% | viability, T/C [35] 0.31% | viability, T/C [36] 0.43%
inactive: viability, T/C [1] 86.7% | viability, T/C [2] 69.4% | viability, T/C [3] 25.7% | viability, T/C [7] 90.7% | viability, T/C [8] 59.6% | viability, T/C [9] 26.1% | viability, T/C [13] 78.7% | viability, T/C [14] 58.9% | viability, T/C [15] 26.5% | viability, T/C [19] 89% | viability, T/C [20] 62.4% | viability, T/C [21] 27.4% | viability, T/C [25] 80.6% | viability, T/C [26] 54.4% | viability, T/C [27] 23.2% | viability, T/C [31] 74% | viability, T/C [32] 57.6% | viability, T/C [33] 20.7%
